Consider four compounds from patent publication US6897065B1, “Method for maturation of conifer somatic embryos” (Woody Plant Biotech APS, priority 1999, dated 2005).

In assay [1] the test system is Abies nordmanniana cell lines. Kind of assay: Maturation of Abies nordmanniana cell lines with different carbohydrate sources (shift from maltose to sucrose). Format: cell-based. The note with it: for development of mature embryos: 45 g/L as sole carbohydrate source during the entire maturation period (treatments A, B). How it is done:
Except from the carbohydrates, the basic maturation medium was composed as described for the control in example 1. However, PCIB was included in a prior determined optimum concentration and period for each of the tested cell lines. Four treatments with different combinations of carbohydrates were tested during maturation: • A) Maturation on culture medium comprising 45 g/L sucrose as carbohydrate source during the entire maturation period. • B) Maturation on culture medium comprising 45 g/L maltose as carbohydrate source during the entire maturation period. Typical embryo from the treatment is disclosed in the left picture of FIG. 9. • C) Maturation on culture medium with 45 g/L maltose during the first part of the maturation period, followed by a shift to maturation medium comprising 22.5 g/L sucrose and 22.5 g/L maltose during the last two weeks of the maturation period. Typical embryo from the treatment is disclosed in the right picture of FIG. 9. • D) Maturation on culture medium with 45 g/L maltose during the first part of the maturation period, followed by a shift to maturation medium comprising 45 g/L sucrose as carbohydrate source for the last two weeks of the maturation period. Typical embryo from the treatment is disclosed in the center picture of FIG. 9. Results

The subject of assay [2] is embryogenic cell lines of Abies nordmanniana. Kind of assay: Maturation of the tested established Abies nordmanniana embryogenic cell lines (G.3.8, G.35.8, G.78.14). The assay is classed as cell-based. From the text: Three different cell lines of Abies nordmanniana were used in the present study. The tested cell lines have been in continuous culture for several years. The cell line G.3.8 was initiated from an immature zygotic embryo in 1989 on half strength MS medium (Murashige and Skoog, 1962) as described previously (Nørgaard and Krogstrup, 1991), Cell line G.35.8 was initiated from a mature zygotic embryo on SH medium in 1991 (Nørgaard and Krogstrup, 1995), and cell line G.78.14 was initiated in 1993 from an immature zygotic embryo on modified half strength BLG medium (Verhagen and Wann, 1989). From 1996, all cultures were maintained by biweekly subculture onto fresh half strength modified BLG medium and grown at 24+/−1° C. in the dark. Cell lines G.3.8 and G.78.14 proliferated fast on maintenance medium with a doubling time of the weight shorter than 2 weeks. Cell line G.35.8 proliferated relatively slowly with a doubling time of the weight higher than 2 weeks.
The standard maturation medium (the control) is modified from the half strength BLG proliferation medium mentioned above. […] The choice of these three culture medium components is determined primarily by the conifer species in question. […] Similarly it is known that addition of PEG-4000 improves maturation. Still it may be possible to obtain just as good results with other combinations of these components and also by using other components with equivalent effects.
In this experiment, the standard maturation medium was modified by excluding PEG and by including one of the following 3 chemicals, that are traditionally expected to affect the endogenous concentration of the naturally occurring auxin IAA or to affect the normal effect of auxin in plant cells: 1) PCIB (auxin-antagonist) in a concentration of 25 or 117 μM, 2) TIBA (auxin transport inhibitor) in a concentration of 5 or 50 μM, 3) phlouroglucinol: (inhibitor of auxin degradation) (see George 1993, page 429 bottom-430) in a concentration of 30 mM. In addition to these modifications the standard maturation medium was modified by: 4) reducing the concentration of boron (precursor of indole acetic acid synthesis) to 10 μM, i.e. 20% of the normal concentration and finally by 5) including 25 μM PCIB in medium with no ABA.
The cultures were matured in the dark at 24° C.+/−1° C.
Two weeks after the last subculture, 4 grams of embryogenic cells was transferred to a 250 mL Flask (Blue cap) together with a magnet stirrer. 100 mL of liquid proliferation medium was added, and the suspension was stirred for 5 minutes at high speed on a magnet stirrer to obtain a homogenous suspension of cells and cell clumps. The culture was then pre-cultured on a gyrotory shaker (120 rpm) for one week at 24+/−1° C. in the dark. Following the pre-culture, the culture was stirred again on a magnet stirrer at high speed for 5 minutes. The culture was transferred to a 100 mL measuring cylinder and allowed to settle for 30 min. The supernatant was discharged and from the remaining culture aliquots of 1 mL were transferred with a cut pipette tip onto filter paper (Whatmann #2) placed on 25 mL of maturation medium in 10 cm Petri dishes (Nunc, Denmark). The filters containing the maturing somatic cultures were transferred onto fresh medium every 2 weeks.
FIG. 5 discloses maturation of cell line G.78.14. This cell line proliferates rapidly and produces very few normal mature embryos according to prior methods. The cell line was matured for 20 weeks on medium comprising 40 μM ABA and a) 25 μM PCIB, b) 0.4 mM phloroglucinol, or c) reduced concentration of Boron (20% of normal concentration). For control see FIG. 1a or 2a.
FIG. 6 discloses maturation of cell line G.78.14 for 20 weeks on maturation medium comprising 40 μM ABA and a) 2.5 mg/L TIBA (5 μM), or b) 25 mg/L TIBA (50 μM).

As to `OC[C@H]1O[C@H](O[C@H]2[C@H](O)[C@@H](O)C(O)O[C@@H]2CO)[C@H](O)[C@@H](O)[C@@H]1O` (mixture of isomers) [maltose], the “development of mature embryos” value in assay [1] is recorded as “high numbers of embryos were produced”. For the same compound, the “average fresh weight of mature embryos” value in assay [1] (treatment B: 45 g/L maltose during the entire maturation period) is “about 50 mg”.
In the case of `O=C(O)c1cc(I)cc(I)c1I` [TIBA, 2,3,5-tri-iodobenzoic acid], in assay [2] (TIBA 5 and 50 μM + 40 μM ABA, 20 weeks), the “development of mature embryos” value is “only very few, and mostly abnormal, mature embryos developed”. Further, in assay [2] (TIBA 5 and 50 μM + 40 μM ABA, all tested cell lines), the “proliferation on the maturation medium” value is “strong reduction of the proliferation”.
As to `Oc1cc(O)cc(O)c1` [phloroglucinol], the proliferation during maturation entry in assay [2] (phloroglucinol 0.4 mM + 40 μM ABA) is listed as “proliferation was increased”. In addition, in assay [2] (phloroglucinol 0.4 mM + 40 μM ABA, 20 weeks), the “development of well developed embryos” value was “no well developed embryos were found”.
With `OC[C@H]1O[C@@](CO)(O[C@H]2O[C@H](CO)[C@@H](O)[C@H](O)[C@H]2O)[C@@H](O)[C@@H]1O` [sucrose], in assay [1], the “development of mature embryos” value is given as “no well developed mature embryos were produced”. In addition, the “size of the mature embryos” value in assay [1] (shift from maltose to medium including sucrose during the last two weeks of maturation (treatments C and D)) is “clear increase in the size of the mature embryos”. Besides, the “reduction of the maturation period, treatment D compared to treatment B” value in assay [1] (shift to 45 g/L sucrose for the last two weeks) is “about four”. Moreover, in assay [1] (treatment D: 45 g/L maltose, shift to 45 g/L sucrose for the last two weeks), the “average fresh weight of mature embryos” value was “about 120 mg per embryo”.
